# Test results taken from paper PMC7206119, “RIP1 inhibition blocks inflammatory diseases but not tumor growth or metastases” (Cell Death and Differentiation, 2019).
# Tests used:
# Assay in all cases: biochemical
# Parameters in all cases: DiscoverX kinase panel, active-site competition binding (KINOMEscan type), percent of control at one concentration
# Conditions in all cases: competition binding, percent of control
# [1] = molecular target: ACVR2B (Homo sapiens, UniProt Q13705)
# [2] = molecular target: FGR (Homo sapiens, UniProt P09769)
# [3] = molecular target: NEK7 (Homo sapiens, UniProt Q8TDX7)
# [4] = molecular target: CSNK1G1 (Homo sapiens, UniProt Q9HCP0)
# [5] = molecular target: SYK (Homo sapiens, UniProt P43405)
# [6] = molecular target: IRAK4 (Homo sapiens, UniProt Q9NWZ3)
# IRAK4, sequence (Q9NWZ3 whole entry): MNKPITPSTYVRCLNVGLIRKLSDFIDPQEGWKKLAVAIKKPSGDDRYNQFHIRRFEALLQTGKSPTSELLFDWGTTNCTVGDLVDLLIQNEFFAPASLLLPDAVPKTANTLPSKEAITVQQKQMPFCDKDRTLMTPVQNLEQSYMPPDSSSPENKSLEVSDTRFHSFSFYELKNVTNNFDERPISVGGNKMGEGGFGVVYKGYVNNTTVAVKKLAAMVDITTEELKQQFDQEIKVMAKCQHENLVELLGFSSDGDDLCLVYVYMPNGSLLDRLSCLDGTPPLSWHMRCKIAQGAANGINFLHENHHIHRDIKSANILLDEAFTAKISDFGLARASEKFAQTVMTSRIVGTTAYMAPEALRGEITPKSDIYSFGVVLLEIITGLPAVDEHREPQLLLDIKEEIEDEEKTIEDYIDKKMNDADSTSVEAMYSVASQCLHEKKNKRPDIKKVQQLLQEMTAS
# [7] = molecular target: TLK1 (Homo sapiens, UniProt Q9UKI8)
# [8] = molecular target: T1, p38-delta (Homo sapiens, UniProt O15264)
# T1 construct: gene MAPK13
# [9] = molecular target: NEK9 (Homo sapiens, UniProt Q8TD19)
# [10] = molecular target: T2, S6K1 (Homo sapiens, UniProt P23443)
# T2 construct: gene RPS6KB1
# [11] = molecular target: SGK2 (Homo sapiens, UniProt Q9HBY8)
# SGK2, sequence (Q9HBY8 whole entry): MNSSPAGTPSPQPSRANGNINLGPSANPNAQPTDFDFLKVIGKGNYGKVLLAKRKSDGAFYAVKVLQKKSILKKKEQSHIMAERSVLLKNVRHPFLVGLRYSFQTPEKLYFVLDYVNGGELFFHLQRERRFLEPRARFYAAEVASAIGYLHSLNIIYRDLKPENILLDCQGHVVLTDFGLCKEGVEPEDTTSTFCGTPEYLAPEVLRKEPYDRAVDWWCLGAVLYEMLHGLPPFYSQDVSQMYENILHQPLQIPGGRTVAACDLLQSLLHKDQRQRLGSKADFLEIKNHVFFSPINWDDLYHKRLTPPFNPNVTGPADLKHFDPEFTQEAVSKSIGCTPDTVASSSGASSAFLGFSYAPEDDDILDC
# [12] = molecular target: T3, MST3 (Homo sapiens, UniProt Q9Y6E0)
# T3 construct: gene STK24
# [13] = molecular target: T4, MST2 (Homo sapiens, UniProt Q13188)
# T4 construct: gene STK3
# [14] = molecular target: T5, CDC2L1 (Homo sapiens, UniProt P21127)
# T5 construct: gene CDK11B
# T5 sequence (P21127 whole entry): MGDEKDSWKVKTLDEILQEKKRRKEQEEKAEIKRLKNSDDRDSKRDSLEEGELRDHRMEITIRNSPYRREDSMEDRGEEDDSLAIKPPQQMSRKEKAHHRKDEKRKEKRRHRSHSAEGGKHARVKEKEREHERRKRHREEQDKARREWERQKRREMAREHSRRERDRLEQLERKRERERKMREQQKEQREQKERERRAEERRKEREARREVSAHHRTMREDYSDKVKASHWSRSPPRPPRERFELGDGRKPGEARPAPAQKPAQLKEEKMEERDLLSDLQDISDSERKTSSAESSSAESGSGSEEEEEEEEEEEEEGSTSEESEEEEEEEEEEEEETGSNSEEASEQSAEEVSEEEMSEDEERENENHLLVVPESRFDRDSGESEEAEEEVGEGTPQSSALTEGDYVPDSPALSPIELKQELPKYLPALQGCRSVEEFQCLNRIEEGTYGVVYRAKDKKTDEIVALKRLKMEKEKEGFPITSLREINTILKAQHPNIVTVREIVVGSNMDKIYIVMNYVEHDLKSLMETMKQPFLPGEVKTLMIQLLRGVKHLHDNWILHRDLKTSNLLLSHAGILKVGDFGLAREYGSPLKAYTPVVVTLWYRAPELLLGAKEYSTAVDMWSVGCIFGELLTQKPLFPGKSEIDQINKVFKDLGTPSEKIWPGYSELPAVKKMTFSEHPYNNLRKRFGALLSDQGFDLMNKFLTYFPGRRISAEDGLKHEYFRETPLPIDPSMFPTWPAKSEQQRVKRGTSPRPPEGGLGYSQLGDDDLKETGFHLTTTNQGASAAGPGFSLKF
# [15] = molecular target: NEK2 (Homo sapiens, UniProt P51955)
# [16] = molecular target: T6, PFPK5(P.falciparum) (Plasmodium falciparum, UniProt P61075)
# T6 construct: gene MAL13P1.279
# T6 sequence (P61075 whole entry): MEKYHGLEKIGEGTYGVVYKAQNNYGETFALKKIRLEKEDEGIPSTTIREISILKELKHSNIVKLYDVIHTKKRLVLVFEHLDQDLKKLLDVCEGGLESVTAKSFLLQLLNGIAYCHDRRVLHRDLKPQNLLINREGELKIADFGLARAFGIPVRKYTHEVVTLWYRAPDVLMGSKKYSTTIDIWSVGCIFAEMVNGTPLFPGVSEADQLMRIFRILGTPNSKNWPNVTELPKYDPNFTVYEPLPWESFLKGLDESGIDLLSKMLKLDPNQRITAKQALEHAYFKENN
# [17] = molecular target: PRKG2 (Homo sapiens, UniProt Q13237)
# [18] = molecular target: CIT (Homo sapiens, UniProt O14578)
# CIT, sequence (O14578 whole entry): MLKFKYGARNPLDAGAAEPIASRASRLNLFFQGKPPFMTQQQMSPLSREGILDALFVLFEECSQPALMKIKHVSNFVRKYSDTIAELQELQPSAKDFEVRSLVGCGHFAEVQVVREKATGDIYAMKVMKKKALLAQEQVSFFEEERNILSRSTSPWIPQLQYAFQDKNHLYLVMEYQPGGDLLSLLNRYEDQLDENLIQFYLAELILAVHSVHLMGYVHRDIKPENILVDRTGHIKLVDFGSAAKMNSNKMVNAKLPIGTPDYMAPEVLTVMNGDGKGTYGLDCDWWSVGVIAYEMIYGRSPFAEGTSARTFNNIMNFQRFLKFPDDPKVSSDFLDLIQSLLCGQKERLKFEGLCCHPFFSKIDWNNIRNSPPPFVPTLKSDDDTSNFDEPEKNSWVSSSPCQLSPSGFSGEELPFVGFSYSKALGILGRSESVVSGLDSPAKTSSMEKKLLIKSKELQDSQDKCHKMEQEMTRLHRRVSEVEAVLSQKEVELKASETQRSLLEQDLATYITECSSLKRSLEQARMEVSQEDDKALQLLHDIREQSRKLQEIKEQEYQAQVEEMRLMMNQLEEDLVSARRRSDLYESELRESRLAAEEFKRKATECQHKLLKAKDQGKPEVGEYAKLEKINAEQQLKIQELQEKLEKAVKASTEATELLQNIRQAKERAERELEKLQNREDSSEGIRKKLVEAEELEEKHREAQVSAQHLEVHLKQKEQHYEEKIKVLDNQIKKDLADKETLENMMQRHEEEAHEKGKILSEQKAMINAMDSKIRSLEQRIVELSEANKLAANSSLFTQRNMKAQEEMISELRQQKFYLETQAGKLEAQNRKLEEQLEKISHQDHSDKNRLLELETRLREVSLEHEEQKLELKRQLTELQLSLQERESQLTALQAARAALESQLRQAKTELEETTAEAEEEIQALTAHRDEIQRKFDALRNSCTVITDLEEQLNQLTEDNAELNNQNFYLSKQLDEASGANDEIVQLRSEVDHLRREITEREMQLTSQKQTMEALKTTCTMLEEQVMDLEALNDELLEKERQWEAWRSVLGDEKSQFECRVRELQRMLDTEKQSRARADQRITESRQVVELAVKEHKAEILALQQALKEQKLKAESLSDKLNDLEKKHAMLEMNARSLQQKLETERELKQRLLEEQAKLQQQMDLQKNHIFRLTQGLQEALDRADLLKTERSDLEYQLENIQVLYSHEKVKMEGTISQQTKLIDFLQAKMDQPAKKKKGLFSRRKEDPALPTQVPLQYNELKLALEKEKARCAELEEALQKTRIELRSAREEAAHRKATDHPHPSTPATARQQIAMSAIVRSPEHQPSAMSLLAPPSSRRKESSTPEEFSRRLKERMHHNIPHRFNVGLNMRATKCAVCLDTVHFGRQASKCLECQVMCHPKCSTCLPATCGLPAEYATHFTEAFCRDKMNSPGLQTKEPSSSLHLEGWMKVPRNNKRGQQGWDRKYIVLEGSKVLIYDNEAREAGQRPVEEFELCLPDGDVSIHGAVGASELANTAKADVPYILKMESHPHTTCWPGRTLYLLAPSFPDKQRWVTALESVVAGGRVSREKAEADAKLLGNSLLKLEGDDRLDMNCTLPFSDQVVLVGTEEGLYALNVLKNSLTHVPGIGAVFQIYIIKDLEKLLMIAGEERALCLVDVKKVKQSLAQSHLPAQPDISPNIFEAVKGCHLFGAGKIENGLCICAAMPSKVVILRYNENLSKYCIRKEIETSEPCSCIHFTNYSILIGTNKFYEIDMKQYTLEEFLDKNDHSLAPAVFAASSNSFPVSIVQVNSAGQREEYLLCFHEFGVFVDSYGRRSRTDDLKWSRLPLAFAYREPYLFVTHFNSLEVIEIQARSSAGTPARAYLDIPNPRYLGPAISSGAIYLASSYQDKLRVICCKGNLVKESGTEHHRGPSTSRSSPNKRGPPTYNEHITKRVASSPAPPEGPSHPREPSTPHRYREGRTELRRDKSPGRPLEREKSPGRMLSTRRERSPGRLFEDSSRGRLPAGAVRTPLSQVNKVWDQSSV
# [19] = molecular target: FER (Homo sapiens, UniProt P16591)
# [20] = molecular target: MYLK2 (Homo sapiens, UniProt Q9H1R3)
# [21] = molecular target: ZAP70 (Homo sapiens, UniProt P43403)
# ZAP70, sequence (P43403 whole entry): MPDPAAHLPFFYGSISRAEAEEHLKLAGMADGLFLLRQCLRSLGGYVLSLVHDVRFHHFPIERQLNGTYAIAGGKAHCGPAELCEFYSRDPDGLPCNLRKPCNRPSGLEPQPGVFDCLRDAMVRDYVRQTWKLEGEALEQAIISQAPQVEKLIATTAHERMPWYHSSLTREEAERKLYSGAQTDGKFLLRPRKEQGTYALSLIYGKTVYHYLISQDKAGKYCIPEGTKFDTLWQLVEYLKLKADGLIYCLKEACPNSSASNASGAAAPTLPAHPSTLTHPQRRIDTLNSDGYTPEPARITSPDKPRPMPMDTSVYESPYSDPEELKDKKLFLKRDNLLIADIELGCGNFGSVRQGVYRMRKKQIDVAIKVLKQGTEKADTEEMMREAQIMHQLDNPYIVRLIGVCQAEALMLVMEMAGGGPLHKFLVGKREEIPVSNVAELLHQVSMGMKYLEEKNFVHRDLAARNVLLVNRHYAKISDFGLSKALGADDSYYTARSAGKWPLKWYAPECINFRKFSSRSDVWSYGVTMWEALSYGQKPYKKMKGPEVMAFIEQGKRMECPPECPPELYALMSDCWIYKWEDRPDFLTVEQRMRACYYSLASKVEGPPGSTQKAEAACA
# [22] = molecular target: FRK (Homo sapiens, UniProt P42685)
# FRK, sequence (P42685 whole entry): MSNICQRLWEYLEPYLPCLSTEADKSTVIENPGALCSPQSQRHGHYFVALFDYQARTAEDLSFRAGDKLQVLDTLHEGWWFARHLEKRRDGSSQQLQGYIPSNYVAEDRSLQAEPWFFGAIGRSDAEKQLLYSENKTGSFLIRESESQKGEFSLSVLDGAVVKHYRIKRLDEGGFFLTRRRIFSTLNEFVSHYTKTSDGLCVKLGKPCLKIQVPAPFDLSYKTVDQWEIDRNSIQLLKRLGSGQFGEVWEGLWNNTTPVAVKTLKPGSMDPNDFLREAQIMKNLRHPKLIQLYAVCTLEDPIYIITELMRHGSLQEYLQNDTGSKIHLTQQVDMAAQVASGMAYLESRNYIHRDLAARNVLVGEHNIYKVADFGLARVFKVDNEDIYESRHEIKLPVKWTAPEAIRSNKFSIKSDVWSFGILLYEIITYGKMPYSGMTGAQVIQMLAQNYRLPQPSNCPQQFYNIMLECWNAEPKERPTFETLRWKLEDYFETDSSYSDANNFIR
structure (smiles),measurement,setting,value
"COc1cc2c(cn1)N(C)C(=O)[C@@H](NC(=O)c1nc3n(n1)[C@H](c1ccccc1)CC3)CC2 [GNE684, (S)-N-((S)-7-methoxy-1-methyl-2-oxo-2,3,4,5-tetrahydro-1H-pyrido[3,4-b]azepin-3-yl)-5-phenyl-6,7-dihydro-5H-pyrrolo[1,2-b][1,2,4]triazole-2-carboxamide]",remaining binding at 10 µM,[1],94%
same,remaining binding at 10 µM,[2],94%
same,remaining binding at 10 µM,[3],97%
same,remaining binding at 10 µM,[4],91%
same,remaining binding at 10 µM,[5],75%
same,remaining binding at 10 µM,[6],100%
same,remaining binding at 10 µM,[7],97%
same,remaining binding at 10 µM,[8],92%
same,remaining binding at 10 µM,[9],99%
same,remaining binding at 10 µM,[10],88%
same,remaining binding at 10 µM,[11],99%
same,remaining binding at 10 µM,[12],99%
same,remaining binding at 10 µM,[13],100%
same,remaining binding at 10 µM,[14],100%
same,remaining binding at 10 µM,[15],92%
same,remaining binding at 10 µM,[16],100%
same,remaining binding at 10 µM,[17],94%
same,remaining binding at 10 µM,[18],100%
same,remaining binding at 10 µM,[19],90%
same,remaining binding at 10 µM,[20],83%
same,remaining binding at 10 µM,[21],100%
same,remaining binding at 10 µM,[22],100%
